Target: T1, human plasma protein factor Xa (Homo sapiens, UniProt P00742)
T1 construct: measure proteolytic activity of the enzyme (factor Xa); purchased Haematologic Technologies (Essex Junction, Vt.); host or cells: human plasma
Assay: Factor Xa IC50 determination: cleavage of paranitroanilide substrate S-2765 in 96-well plates
Assay type: biochemical
Conditions: fXa 1 nM, S-2765 100 μM, Tris buffered saline pH 7.4, room temperature
Summary of the method: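 Human plasma factor Xa (1 nM) preincubated 5 min at room temperature with inhibitor (0.01 nM–10 μM final) in Tris-buffered saline pH 7.4 with 5 mM CaCl2, 0.1% BSA, 5% DMSO. S-2765 at 100 μM final; hydrolysis at 405 nm over 2 min. IC50 from 4-parameter fit of initial velocities.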

T1 sequence (P00742 235-488 limits assumed): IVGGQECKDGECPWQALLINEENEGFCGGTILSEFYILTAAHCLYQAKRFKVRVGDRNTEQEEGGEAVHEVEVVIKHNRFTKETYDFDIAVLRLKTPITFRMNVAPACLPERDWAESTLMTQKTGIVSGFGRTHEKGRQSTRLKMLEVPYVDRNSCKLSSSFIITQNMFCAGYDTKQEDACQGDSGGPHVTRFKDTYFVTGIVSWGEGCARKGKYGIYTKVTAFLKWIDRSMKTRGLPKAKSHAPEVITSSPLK
T1 sequence (P00742 41-179 partner limits assumed): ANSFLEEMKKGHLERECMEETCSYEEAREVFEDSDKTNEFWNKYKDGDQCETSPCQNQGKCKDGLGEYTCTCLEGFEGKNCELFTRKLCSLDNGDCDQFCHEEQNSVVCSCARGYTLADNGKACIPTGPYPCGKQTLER

Row | Structure (SMILES) | IC50 [nM]
1 | O=C(NCC1CC(c2ccc(-c3ccccc3CN3CCOCC3)cc2)=NO1)c1ccc(Cl)s1 (stereo not drawn) [Example 197, 5-Chloro-thiophene-2-carboxylic acid [3-(2′-morpholin-4-ylmethyl-biphenyl-4-yl)-4,5-dihydro-isoxazol-5-ylmethyl]-amide] | ≤ 100
2 | CN1CCN=C1c1ccc(-c2csc(CNC(=O)c3ccc(Cl)s3)n2)cc1 [Example 361, 5-Chloro-N-((4-(4-(1-methyl-4,5-dihydro-1H-imidazol-2-yl)phenyl)thiazol-2-yl)methyl)thiophene-2-carboxamide] | ≥ 500
3 | CN(C)Cc1ccccc1-c1cccc(-c2cc(CNC(=O)c3ccc(Cl)s3)on2)c1 [Example 268, 5-Chloro-thiophene-2-carboxylic acid [3-(T-dimethylaminomethyl-biphenyl-3-yl)-isoxazol-5-ylmethyl]-amide] | ≥ 500
4 | O=C(NCC1CC(c2ccc(-c3ccccc3Cl)cc2)=NO1)c1ccc(Cl)s1 (stereo not drawn) [Example 184, 5-Chloro-thiophene-2-carboxylic acid [3-(2′-chloro-biphenyl-4-yl)-4,5-dihydro-isoxazol-5-ylmethyl]-amide] | ≥ 500
5 | O=C(NCc1cc(-c2ccc(N3CCCC3)cc2)no1)c1ccc(Cl)s1 [Example 256, 5-Chloro-thiophene-2-carboxylic acid [3-(4-pyrrolidin-1-yl-phenyl)-isoxazol-5-ylmethyl]-amide] | ≥ 500
6 | CN1CCN=C1c1ccc(-c2cc(CNC(=O)c3ccc(Cl)s3)on2)c(Oc2ccccc2)c1 [Example 131, 5-Chloro-thiophene-2-carboxylic acid {3-[4-(1-methyl-4,5-dihydro-1H-imidazol-2-yl)-2-phenoxy-phenyl]-isoxazol-5-ylmethyl}-amide] | ≤ 100
7 | COc1ccc(CN2CCCC2)c(-c2ccc(C3=NOC(CNC(=O)c4ccc(Cl)s4)C3)cc2)c1 (stereo not drawn) [Example 203, 5-Chloro-thiophene-2-carboxylic acid [3-(5′-methoxy-2′-pyrrolidin-1-ylmethyl-biphenyl-4-yl)-4,5-dihydro-isoxazol-5-ylmethyl]-amide] | ≤ 100
8 | O=C(NCc1cc(-c2ccc(-c3ccccc3CN3CCCC3)cc2)no1)c1ccc(Cl)s1 [Example 210, 5-Chloro-thiophene-2-carboxylic acid [3-(2′-pyrrolidin-1-ylmethyl-biphenyl-4-yl)-isoxazol-5-ylmethyl]-amide] | 100 to 500
9 | N=C(c1ccc(-n2cc(CNC(=O)c3ccc(Cl)s3)cn2)cc1)N1CCCC1 [Example 328, 5-Chloro-N-((1-(4-(imino(pyrrolidin-1-yl)methyl)phenyl)-1H-pyrazol-4-yl)methyl)thiophene-2-carboxamide] | ≤ 100
10 | CC1CCCN1C(=O)c1ccc(C2=NOC(CNC(=O)c3ccc(Cl)s3)C2)cc1 (stereo not drawn) [Example 165, 5-Chloro-thiophene-2-carboxylic acid {3-[4-(2-methyl-pyrrolidine-1-carbonyl)-phenyl]-4,5-dihydro-isoxazol-5-ylmethyl}-amide] | 100 to 500
11 | O=C(NCC1CC(c2ccc(Nc3ccncc3C(F)(F)F)cc2)=NO1)c1ccc(Cl)s1 (stereo not drawn) [Example 403, 5-Chloro-N-((3-(4-(3-(trifluoromethyl)pyridin-4-ylamino)phenyl)-4,5-dihydroisoxazol-5-yl)methyl)thiophene-2-carboxamide] | ≤ 100
12 | O=C(NCC1CC(c2ccc(-c3ccccc3CN3CCCCCC3)cc2)=NO1)c1ccc(Cl)s1 (stereo not drawn) [Example 201, 5-Chloro-thiophene-2-carboxylic acid [3-(2′-azepan-1-ylmethyl-biphenyl-4-yl)-4,5-dihydro-isoxazol-5-ylmethyl]-amide] | ≥ 500
13 | CN1CCN=C1c1ccc(-n2cc(CNC(=O)c3ccc(Cl)s3)nn2)cc1 [Example 312, 5-Chloro-N-((1-(4-(1-methyl-4,5-dihydro-1H-imidazol-2-yl)phenyl)-1H-1,2,3-triazol-4-yl)methyl)thiophene-2-carboxamide] | ≤ 100
14 | O=C(NCC1CC(c2ccc(-n3cccc(Cl)c3=O)cc2)=NO1)c1ccc(Cl)s1 (stereo not drawn) [Example 283, 5-Chloro-N-((3-(4-(3-chloro-2-oxopyridin-1(2H)-yl)phenyl)-4,5-dihydroisoxazol-5-yl)methyl)thiophene-2-carboxamide] | ≤ 100
15 | CN(C)Cc1ccccc1-c1ccc(-c2cc(CNC(=O)c3ccc(Cl)s3)on2)cc1 [Example 209, 5-Chloro-thiophene-2-carboxylic acid [3-(2′-dimethylaminomethyl-biphenyl-4-yl)-isoxazol-5-ylmethyl]-amide] | ≤ 100
16 | O=C(NCC1CC(c2ccc(Cl)cc2)=NO1)c1ccc(Cl)s1 (stereo not drawn) [Example 153, 5-Chloro-thiophene-2-carboxylic acid [3-(4-chloro-phenyl)-4,5-dihydro-isoxazol-5-ylmethyl]-amide] | ≥ 500
17 | COc1ccc(C2=NOC(C)(CNC(=O)c3ccc(Cl)s3)C2)cc1 (stereo not drawn) [Example 151, 5-Chloro-thiophene-2-carboxylic acid [3-(4-methoxy-phenyl)-5-methyl-4,5-dihydro-isoxazol-5-ylmethyl]-amide] | ≥ 500
18 | C[C@H](NC(=O)c1ccc(Cl)s1)c1cc(-c2ccc(C(=N)N3CCCC3)cc2)no1 [Example 55, (S)-5-Chloro-thiophene-2-carboxylic acid (1-{3-[4-(imino-pyrrolidin-1-yl-methyl)-phenyl]-isoxazol-5-yl}-ethyl)-amide] | ≥ 500
19 | CN(C)CCN(C)Cc1ccccc1-c1ccc(C2=NOC(CNC(=O)c3ccc(Cl)s3)C2)cc1 (stereo not drawn) [Example 200, 5-Chloro-thiophene-2-carboxylic acid [3-(2′-{[(2-dimethylamino-ethyl)-methyl-amino]-methyl}-biphenyl-4-yl)-4,5-dihydro-isoxazol-5-ylmethyl]-amide] | ≤ 100
20 | O=C(NCC1CC(c2ccc(Nc3ccnc4c(C(F)(F)F)cccc34)cc2)=NO1)c1ccc(Cl)s1 (stereo not drawn) [Example 393, 5-Chloro-N-((3-(4-(8-(trifluoromethyl)quinolin-4-ylamino)phenyl)-4,5-dihydroisoxazol-5-yl)methyl)thiophene-2-carboxamide] | ≥ 500
21 | CN(C)c1cc(C(=N)N2CCCC2)ccc1C1=NOC(CNC(=O)c2ccc(Cl)s2)C1 (stereo not drawn) [Example 76, 5-Chloro-thiophene-2-carboxylic acid {3-[2-dimethylamino-4-(imino-pyrrolidin-1-yl-methyl)-phenyl]-4,5-dihydro-isoxazol-5-ylmethyl}-amide] | 100 to 500

Next, values leading:

Row | IC50 [nM] | Structure (SMILES)
22 | ≤ 100 | COc1cc(C2=NCCN2C)ccc1-c1cc(CNC(=O)c2ccc(Cl)s2)on1 [Example 119, 5-Chloro-thiophene-2-carboxylic acid {3-[2-methoxy-4-(1-methyl-4,5-dihydro-1H-imidazol-2-yl)-phenyl]-isoxazol-5-ylmethyl}-amide]
23 | 100 to 500 | N=C(c1ccc(-c2nc(CNC(=O)c3ccc(Cl)s3)cs2)cc1)N1CCCCC1 [Example 353, 5-Chloro-N-((2-(4-(imino(piperidin-1-yl)methyl)phenyl)thiazol-4-yl)methyl)thiophene-2-carboxamide]
24 | ≥ 500 | CN(c1ccncc1)c1ccc(-c2cc(CNC(=O)c3ccc(Cl)s3)on2)cc1 [Example 255, 5-Chloro-thiophene-2-carboxylic acid {3-[4-(methyl-pyridin-4-yl-amino)-phenyl]-isoxazol-5-ylmethyl}-amide]
25 | ≥ 500 | CN(Cc1cc(-c2ccc(C(N3CCC3)=[N+]3CCC3)cc2)no1)C(=O)c1ccc(Cl)s1 [Example 41, 5-Chloro-thiophene-2-carboxylic acid {3-[4-(azetidin-1-yl-azetidin-1-ylidene-methyl)-phenyl]-isoxazol-5-ylmethyl}-methyl-amide]
26 | ≥ 500 | CC(=N)N1CCC(C2=NOC(CNC(=O)c3ccc(Cl)s3)C2)CC1 (stereo not drawn) [Example 173, 5-Chloro-thiophene-2-carboxylic acid {3-[1-(1-imino-ethyl)-piperidin-4-yl]-4,5-dihydro-isoxazol-5-ylmethyl}-amide]
27 | 100 to 500 | CN(C)C(=N)c1ccc(C2=NOC(CNC(=O)c3ccc(Cl)s3)C2)c(N2CCCCCC2)c1 (stereo not drawn) [Example 90, 5-Chloro-thiophene-2-carboxylic acid {3-[2-azepan-1-yl-4-(N,N-dimethyl-carbamimidoyl)-phenyl]-4,5-dihydro-isoxazol-5-ylmethyl}-amide]
28 | ≤ 100 | COc1cccn(-c2ccc(-n3cc(CNC(=O)c4ccc(Cl)s4)nn3)cc2)c1=O [Example 294, 5-Chloro-N-((1-(4-(3-methoxy-2-oxopyridin-1(2H)-yl)phenyl)-1H-1,2,3-triazol-4-yl)methyl)thiophene-2-carboxamide]
29 | ≤ 100 | N=C(c1ccc(-n2cc(CNC(=O)c3ccc(Cl)s3)nn2)c(F)c1)N1CCCCC1 [Example 323, 5-Chloro-N-((1-(2-fluoro-4-(imino(piperidin-1-yl)methyl)phenyl)-1H-1,2,3-triazol-4-yl)methyl)thiophene-2-carboxamide]
30 | ≥ 500 | O=C(NCC1CC(c2ccc(NCc3ccccc3)cc2)=NO1)c1ccc(Cl)s1 (stereo not drawn) [Example 221, 5-Chloro-thiophene-2-carboxylic acid [3-(4-benzylamino-phenyl)-4,5-dihydro-isoxazol-5-ylmethyl]-amide]
31 | ≥ 500 | Cc1ccc(C2=NOC(C)(CNC(=O)c3ccc(Cl)s3)C2)cc1 (stereo not drawn) [Example 148, 5-Chloro-thiophene-2-carboxylic acid (5-methyl-3-p-tolyl-4,5-dihydro-isoxazol-5-ylmethyl)-amide]
32 | ≤ 100 | O=C(NCC1CC(c2ccc(-c3ccccc3CN3CCCC3)cc2)=NO1)c1ccc(Cl)s1 (stereo not drawn) [Example 195, 5-Chloro-thiophene-2-carboxylic acid [3-(2′-pyrrolidin-1-ylmethyl-biphenyl-4-yl)-4,5-dihydro-isoxazol-5-ylmethyl]-amide]
33 | ≥ 500 | O=C(NCc1cc(-c2ccc(Nc3ccccn3)cc2)no1)c1ccc(Cl)s1 [Example 252, 5-Chloro-thiophene-2-carboxylic acid {3-[4-(pyridin-2-ylamino)-phenyl]-isoxazol-5-ylmethyl}-amide]

From patent publication US8377974B2 (Millennium Pharmaceuticals, Inc., priority 2004, dated 2013)
